Measurements taken from US9051326B2, “Pyrazoline derivatives and their use as selective androgen receptor modulators” (NOVARTIS AG, priority 2011, dated 2015).

biological target: T1, androgen receptor (AR) (Homo sapiens, UniProt P10275); assay: AR transcriptional activation luciferase reporter assay in C2C12 cells (Test 1); type: cell-based; settings: not given
T1 construct: transfecting C2C12 cells with a plasmid containing full-length AR along with an AR response element linked to luciferase; expressed in transfected cells; host or cells: mouse myoblastic C2C12 cells (ATCC CRL-1772), transient transfection with Lipofectamine 2000
T1 sequence (P10275 1-920): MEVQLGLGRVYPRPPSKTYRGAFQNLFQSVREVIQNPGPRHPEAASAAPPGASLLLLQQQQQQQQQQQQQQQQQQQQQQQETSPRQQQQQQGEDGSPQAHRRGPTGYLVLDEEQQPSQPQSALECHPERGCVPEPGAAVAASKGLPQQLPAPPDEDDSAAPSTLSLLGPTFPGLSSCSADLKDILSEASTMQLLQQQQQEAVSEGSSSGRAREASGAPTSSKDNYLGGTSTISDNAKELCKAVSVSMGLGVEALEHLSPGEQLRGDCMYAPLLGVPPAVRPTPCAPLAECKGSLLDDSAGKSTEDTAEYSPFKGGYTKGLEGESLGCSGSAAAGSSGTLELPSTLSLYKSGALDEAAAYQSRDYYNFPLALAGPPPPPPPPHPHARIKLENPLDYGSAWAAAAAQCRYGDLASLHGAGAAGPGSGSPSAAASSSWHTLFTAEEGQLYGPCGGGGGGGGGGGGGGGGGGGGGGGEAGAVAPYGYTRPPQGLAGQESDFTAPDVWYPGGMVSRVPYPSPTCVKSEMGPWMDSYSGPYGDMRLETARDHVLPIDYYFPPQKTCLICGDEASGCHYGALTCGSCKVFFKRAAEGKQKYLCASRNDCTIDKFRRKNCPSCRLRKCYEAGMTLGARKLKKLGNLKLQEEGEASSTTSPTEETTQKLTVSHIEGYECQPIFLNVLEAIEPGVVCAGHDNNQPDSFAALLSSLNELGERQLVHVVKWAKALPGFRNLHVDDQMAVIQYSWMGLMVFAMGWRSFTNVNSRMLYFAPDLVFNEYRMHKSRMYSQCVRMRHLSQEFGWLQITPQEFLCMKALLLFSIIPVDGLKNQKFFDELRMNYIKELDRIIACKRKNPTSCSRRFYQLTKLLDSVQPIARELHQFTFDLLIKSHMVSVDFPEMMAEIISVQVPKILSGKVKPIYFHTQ
Experimental: A suitable assay to determine the ability of a ligand to transcriptionally activate androgen receptor (AR) is carried out using mouse myoblastic C2C12 cells. The assay involves transfecting C2C12 cells with a plasmid containing full-length AR along with an AR response element linked to luciferase (2XIDR17). The luminescence read-out at the end of the assay is measured using Victor 3 and is a direct measure of the transcriptional activity. The assay has been validated using the reference compound, BMS-564929, for which EC50 values have been reported in a similar set-up. Other tool compounds that have been used for assay validation are GSK-420A, Andarine, putative Ostarine, and LGD-2226.
C2C12 cells were obtained from ATCC (Cat # CRL-1772) and maintained in DMEM modified to contain 4 mM L-glutamine, 4.5 g/L glucose, 1 mM sodium pyruvate and 1.5 g/L sodium bicarbonate and 10% FBS.
AR-FL in pcDNA 3.1(+) and 2XIDR17 in pGL4.26 plasmids prepared using Genelute plasmid miniprep kit from Sigma Cat # PLED35
• C2C12 cells were seeded in a 96-well plate in DMEM (Dulbecco's Modified Eagle Medium) without phenol red and containing 10% CS-FBS (Charcoal-stripped Fetal Bovine Serum) at 8000 cells/well. • The next day, cells were transfected with an equimolar ratio of (Androgen Receptor-Full length) AR-FL and 2XIDR17-Luciferase at a total plasmid concentration of 200 ng/well using Lipofectamine 2000 following manufacturer's protocol. • For the transfection, 83 ng of AR-FL and 117 ng of 2XIDR17-Luciferase were in 12.5 μl of OptiMEM—Mix A. 0.4 μl of Lipofectamine 2000 was added to 12.5 μl of OptiMEM and incubated for 5 min at room temperature—Mix B. The two mixes A and B were mixed and incubated at room temperature for an additional fifteen minutes. An additional 50 μl of OptiMEM was added, gently mixed and this mixture was added to the cells in the 96-well plate. The above quantities are requirements per well of a 96-well plate. Master mixes were made for the entire plate, with proportional quantity of reagents being used. • 5 h after transfection, compounds were added to the wells in DMEM without phenol red and containing 10% CS-FBS, maintaining a final DMSO concentration of 0.5%. A typical dose response curve starts at 10 μM and includes a 7-point, log dilution, done in triplicates. • After overnight incubation with the compounds, 100 ul of working solution of Steadyglow reagent was added to the wells. • The plates were placed in a shaker for 15 min at the end of which the lysate containing luciferase was transferred to a white flat-bottom plate and read under a luminescence setting in Victor. • Background subtracted counts (Luminescence from DMSO control wells is considered the background) are used to calculate percentage activity, expressed relative to activity with 1 μM (Dihydrotestosterone) DHT (at least two sets of triplicates for 1 μM DHT are included per plate). Data Fitting: • The EC50 curves for the compounds for 8 compound concentrations were fitted by the respective function using non-linear least-squares regression in Graphpad Prism 4.0 (Graphpad Software, San Diego, Calif., USA).

Row | SMILES | EC50
1 | CCO[C@@H]1C(c2ccc(C#N)c(Cl)c2C)=NN2CC[C@@H](O)[C@@H]12 [Example 6, 2-chloro-4-((3S,3aS,4R)-3-ethoxy-4-hydroxy-3a,4,5,6-tetrahydro-3H-pyrrolo[1,2-b]pyrazol-2-yl)-3-methylbenzonitrile] | 0.6 nM
2 | CO[C@@H]1C(c2ccc(C#N)c(Cl)c2C)=NN2C[C@H](O)C[C@@H]12 [Example 8, 2-chloro-4-((3S,3aS,5R)-5-hydroxy-3-methoxy-3a,4,5,6-tetrahydro-3H-pyrrolo[1,2-b]pyrazol-2-yl)-3-methylbenzonitrile] | 6.7 nM
3 | CO[C@@H]1C(c2ccc(C#N)c(Cl)c2C)=NN2C[C@H](O)[C@H](O)[C@@H]12 [Example 25, 2-chloro-4-((3S,3aS,4R,5S)-4,5-dihydroxy-3-methoxy-3a,4,5,6-tetrahydro-3H-pyrrolo[1,2-b]pyrazol-2-yl)-3-methylbenzonitrile] | 51.2 nM
4 | COCCCO[C@@H]1C(c2ccc(C#N)c(Cl)c2C)=NN2CC(F)(F)C[C@@H]12 [Example 31] | 11.4 nM
5 | CO[C@@H]1C(c2ccc(C#N)c(Cl)c2C)=NN2CC(=O)C[C@@H]12 [Example 9, 2-chloro-4-((3S,3aS)-3-methoxy-5-oxo-3a,4,5,6-tetrahydro-3H-pyrrolo[1,2-b]pyrazol-2-yl)-3-methylbenzonitrile] | 10.5 nM
6 | Cc1c(C2=NN3CC[C@H](O)[C@H]3[C@@H]2OC(C)C)ccc(C#N)c1Cl [Example 7, 2-chloro-4-((3S,3aS,4S)-4-hydroxy-3-isopropoxy-3a,4,5,6-tetrahydro-3H-pyrrolo[1,2-b]pyrazol-2-yl)-3-methylbenzonitrile] | 4 nM
7 | COCCCO[C@@H]1C(c2ccc(C#N)c(Cl)c2C)=NN2C[C@H](O)C[C@@H]12 [Example 29] | 40 nM
8 | COCCCO[C@@H]1C(c2ccc(C#N)c(Cl)c2C)=NN2CC(=O)C[C@@H]12 [Example 30] | 56 nM
9 | CO[C@@H]1C(c2ccc(C#N)c(Cl)c2C)=NN2CC(F)(F)C[C@@H]12 [Example 15, 2-chloro-4-((3S,3aS)-5,5-difluoro-3-methoxy-3a,4,5,6-tetrahydro-3H-pyrrolo[1,2-b]pyrazol-2-yl)-3-methylbenzonitrile] | 0.1 nM
10 | CO[C@@H]1C(c2ccc(C#N)c(Cl)c2C)=NN2C[C@@H](I)C[C@@H]12 [Example 19, 2-chloro-4-((3S,3aS,5S)-5-iodo-3-methoxy-3a,4,5,6-tetrahydro-3H-pyrrolo[1,2-b]pyrazol-2-yl)-3-methylbenzonitrile] | 7 nM
11 | COCCO[C@@H]1C(c2ccc(C#N)c(Cl)c2C)=NN2C[C@@H](F)C[C@@H]12 [Example 27] | 65.8 nM
12 | COCCO[C@@H]1C(c2ccc(C#N)c(Cl)c2C)=NN2CC(=O)C[C@@H]12 [Example 28] | 175 nM
13 | CO[C@@H]1C(c2ccc(C#N)c(Cl)c2C)=NN2CC[C@H](F)[C@@H]12 [Example 13, 2-chloro-4-((3S,3aR,4S)-4-fluoro-3-methoxy-3a,4,5,6-tetrahydro-3H-pyrrolo[1,2-b]pyrazol-2-yl)-3-methylbenzonitrile] | 1.3 nM
14 | Cc1c(C2=NN3CC[C@H](O)[C@H]3[C@@H]2OCCF)ccc(C#N)c1Cl [Example 16, 2-chloro-4-((3S,3aS,4S)-3-(2-fluoroethoxy)-4-hydroxy-3a,4,5,6-tetrahydro-3H-pyrrolo[1,2-b]pyrazol-2-yl)-3-methylbenzonitrile] | 2 nM
15 | COCCO[C@@H]1C(c2ccc(C#N)c(Cl)c2C)=NN2CC[C@@H](F)[C@@H]12 [Example 22, 2-chloro-4-((3S,3aR,4R)-4-fluoro-3-(2-methoxyethoxy)-3a,4,5,6-tetrahydro-3H-pyrrolo[1,2-b]pyrazol-2-yl)-3-methylbenzonitrile] | 0.98 nM
16 | CO[C@@H]1C(c2ccc(C#N)c(Cl)c2C)=NN2CC[C@@H](F)[C@@H]12 [Example 12, 2-chloro-4-((3S,3aR,4R)-4-fluoro-3-methoxy-3a,4,5,6-tetrahydro-3H-pyrrolo[1,2-b]pyrazol-2-yl)-3-methylbenzonitrile] | 0.1 nM
17 | Cc1c(C2=NN3CC[C@@H](F)[C@H]3[C@@H]2OCCF)ccc(C#N)c1Cl [Example 23, 2-chloro-4-((3S,3aR,4R)-4-fluoro-3-(2-fluoroethoxy)-3a,4,5,6-tetrahydro-3H-pyrrolo[1,2-b]pyrazol-2-yl)-3-methylbenzonitrile] | 0.41 nM
18 | COCCO[C@@H]1C(c2ccc(C#N)c(Cl)c2C)=NN2CC(F)(F)C[C@@H]12 [Example 24, 2-chloro-4-((3S,3aS)-5,5-difluoro-3-(2-methoxyethoxy)-3a,4,5,6-tetrahydro-3H-pyrrolo[1,2-b]pyrazol-2-yl)-3-methylbenzonitrile] | 5.6 nM

same assay, conditions: 100 nM compound; activity relative to 1 μM DHT

Row | SMILES | % Biological activity (C2C12 cell) 100 nM
19 | Cc1c(C2=NN3CC[C@H](O)[C@H]3[C@@H]2OCC2CC2)ccc(C#N)c1Cl [Example 17, 2-chloro-4-((3S,3aS,4S)-3-(cyclopropylmethoxy)-4-hydroxy-3a,4,5,6-tetrahydro-3H-pyrrolo[1,2-b]pyrazol-2-yl)-3-methylbenzonitrile] | 91%
20 | Cc1c(C2=NN3C[C@H](O)C[C@H]3[C@@H]2O)ccc(C#N)c1Cl [Example 10, 2-chloro-4-((3S,3aS,5R)-3,5-dihydroxy-3a,4,5,6-tetrahydro-3H-pyrrolo[1,2-b]pyrazol-2-yl)-3-methylbenzonitrile] | 4%
21 | CO[C@@H]1C(c2ccc(C#N)c(Cl)c2C)=NN2CC(O)(C(F)(F)F)C[C@@H]12 (stereo partly drawn) [Example 11, 2-chloro-4-((3S,3aS)-5-hydroxy-3-methoxy-5-(trifluoromethyl)-3a,4,5,6-tetrahydro-3H-pyrrolo[1,2-b]pyrazol-2-yl)-3-methylbenzonitrile] | 24%

same assay, conditions: 5 μM compound; activity relative to 1 μM DHT

Row | SMILES | % Biological activity (C2C12 cell) 5 μM
22 | Cc1c(C2=NN3CC[C@H](O)[C@H]3[C@@H]2OCC2CC2)ccc(C#N)c1Cl [Example 17, 2-chloro-4-((3S,3aS,4S)-3-(cyclopropylmethoxy)-4-hydroxy-3a,4,5,6-tetrahydro-3H-pyrrolo[1,2-b]pyrazol-2-yl)-3-methylbenzonitrile] | 100%
23 | Cc1c(C2=NN3C[C@H](O)C[C@H]3[C@@H]2O)ccc(C#N)c1Cl [Example 10, 2-chloro-4-((3S,3aS,5R)-3,5-dihydroxy-3a,4,5,6-tetrahydro-3H-pyrrolo[1,2-b]pyrazol-2-yl)-3-methylbenzonitrile] | 2%
24 | CO[C@@H]1C(c2ccc(C#N)c(Cl)c2C)=NN2CC(O)(C(F)(F)F)C[C@@H]12 (stereo partly drawn) [Example 11, 2-chloro-4-((3S,3aS)-5-hydroxy-3-methoxy-5-(trifluoromethyl)-3a,4,5,6-tetrahydro-3H-pyrrolo[1,2-b]pyrazol-2-yl)-3-methylbenzonitrile] | 33%

same assay, conditions: 5 μM compound; symbol defined in table footnote

Row | SMILES | activity at 5 μM concentration (C2C12 cell)
25 | CO[C@@H]1C(c2ccc(C#N)c(Cl)c2C)=NN2C[C@@H](O)C[C@@H]12 [Example 18, 2-chloro-4-((3S,3aS,5S)-5-hydroxy-3-methoxy-3a,4,5,6-tetrahydro-3H-pyrrolo[1,2-b]pyrazol-2-yl)-3-methylbenzonitrile] | ** (at 5 μM concentration, <10% activity)

same assay, conditions: mouse myoblastic C2C12 cells transfected with AR-FL and 2XIDR17-luciferase; read-out: Biological activity (C2C12 cell) EC50

Row | SMILES | EC50
26 | COCCO[C@@H]1C(c2ccc(C#N)c(Cl)c2C)=NN2CC[C@H](O)[C@@H]12 [Example 21, 2-chloro-4-((3S,3aS,4S)-4-hydroxy-3-(2-methoxyethoxy)-3a,4,5,6-tetrahydro-3H-pyrrolo[1,2-b]pyrazol-2-yl)-3-methylbenzonitrile] | 0.93 nM
